“Also recorded” adds a separate entry of the source.
Columns and labels:
[1] = tested on: platelet aggregation induced by ADP and adrenaline; settings: reported in the literature; cited from earlier work
[2] = tested on: human mesenchymal stem cells (MSC); assay: In vivo trafficking of 111In-labeled human mesenchymal stem cells (MSC) after glycoprotein pretreatment, gamma camera imaging; parameters: species or system NOD-SCID mice
Description: Human mesenchymal stem cells (hMSCs; PT-2501) obtained through an FDA-monitored, paid bone marrow donor program were purchased from Poietics Technologies, BioWhittaker (Walkerville, Md.). The cells were thawed according to manufacturer recommendations, resuspended, and radiolabelled in Mesenchymal Stem Cell Basal Medium (MSCBM).
^111Indium Oxine Labelling Procedure: ^111In-oxine labelling of adult human CD34+ or mesenchymal stem cells (hMSCs) was performed using a modification of the Amersham Healthcare Procedure for labelling autologous leukocytes.
Imaging procedures: Nuclear Medicine. NOD-SCID mice were anesthetized using rodent anesthesia cocktail. Once anesthetized, the mice were placed on a foam hemi-cylindrical mouse-positioning device (MPD,) and covered with a tube sock. The MPD allows better visual separation of the lungs and liver as compared to placing the mouse on a flat surface. The foam on which the mouse was placed, and the tube sock covering maintained a comfortable temperature permitting longer imaging without additional anesthesia. The MPD was placed on a narrow table between the dual heads of a Siemens E.Cam Gamma Camera and imaged statically or dynamically in 2-D or SPECT. ^57Co-Spot Marker is used to mark anatomic positions (nose, tail, cannula, etc.). The data was analyzed using a Siemens ICON system for regions of interest or percent of injected dose (e.g., liver, spleen, heart).
Gamma camera imaging using a Siemens E.Cam dual head gamma camera monitored the in vivo trafficking patterns of all human stem cells described in the following examples. Mice were placed on a Mouse Positioning Device (MPD) and placed between the detectors on the imaging platform.
MSC were obtained from BioWhittaker, (Poietics Division, cryopreserved PT-2501>750000 cells per ampoule) and labelled with ^111In as in previous examples, except that the MSC were labelled, washed, and injected in Basal Stem Cell Medium (Poietics) containing 5% human serum albumin (HSA). 0.56×10^6, ^111In-labelled, human mesenchymal stem cells (MSC) were administered via an implanted DaVinci Microport Vascular System cannula in the external jugular vein of a two-month old, female NOD-SCID mouse in 0.21 ml of basal stem cell medium containing 5% human serum albumin (HSA). Immediately prior to administration of MSC, 11.0 mg of orosomucoid was administered i.v. in 0.2 ml.
0.56×10^6, ^111In-labeled MSC were administered i.v. in 0.21 ml of basal stem cell medium containing 5% human serum albumin (HSA). […]

[3] = tested on: human mesenchymal stem cells (MSC); assay: In situ hybridization for human DNA in organs after MSC infusion; assay type: in vivo, NOD-SCID mice; settings: 0.56×10^6 MSC preceded by 11 mg orosomucoid i.v.
Excerpt: Mice were imaged and the biodistribution of the radiolabelled MSCs cells monitored as described in Example 1. […] The positions of the cannula, diaphragm, heart, lungs, and liver were verified by CT scans (coronal sections).
The positions of the cannula, diaphragm, heart, lungs, and liver were verified by CT scans. In situ hybridization confirmed the gamma camera biodistribution data.

[4] = tested on: human CD34+ (hCD34+) peripheral blood stem cells; assay: In vivo trafficking of 111In-labeled human CD34+ stem cells (HSC) after glycoprotein pretreatment, gamma camera imaging; parameters: species or system NOD-SCID mice
[5] = tested on: human CD34+ (hCD34+) peripheral blood stem cells; assay: Microscopic examination of organs: immunohistochemical staining for human CD34 and in situ hybridization for human DNA after HSC infusion; assay type: in vivo, NOD-SCID mice
Excerpt: Harvesting for tissues for histopathology: Tissues were harvested after euthanasia. After the 1-hour image, the organs were harvested and half the organ was fixed in 10% neutral buffered formalin and the other half was frozen in OTC for frozen sections. The images presented herein are from fixed tissues.
Necropsy Procedure For Collection of Mouse Tissues: An initial midline skin incision from the anterior cervical region to the brim of the pubis was made followed by an abdominal incision following linea alba from the sternum to the pubis with a lateral reflection of the abdominal wall by incision following the caudal ribs. The sternum was reflected anteriorly by cutting the ribs at approximately the level of the costochrondral junction, incising the diaphragm and pericardium as needed. Anteriorly, reflection of sternum was extended to include the ventral cervical muscles to expose the trachea. The trachea and esophagus were incised at the mid cervical area and reflected caudally, cutting attachments as necessary to remove the thoracic viscera in toto. Following removal of the thoracic viscera, the entire heart was dissected free and immersed in 10% neutral buffered formalin. […]
Mice were imaged and the biodistribution of the radiolabelled hCD34+ cells monitored as described above. […]

[6] = cells infused into the jugular vein of immunodeficient mice, preceded by an infusion of the protein

Orosomucoid: alpha-(1)-acid glycoprotein, a normal constituent of human plasma; single polypeptide chain, approximately 45% carbohydrate including 12% sialic acid
Amounts that inhibit platelet aggregation [1]: 5 to 15 mg/mL
% Infused Cells In Heart ([2]; 0.56×10^6 MSC preceded by 11 mg orosomucoid i.v., 0 hr): 61.7-75.5%
% Infused Cells In Heart ([2]; 0.56×10^6 MSC preceded by 11 mg orosomucoid i.v., 1 hr): 58-64%
% Infused Cells In Heart ([2]; MSC/Orosomucoid, at 12 hr (Table 1)): 61 ± 3% at 12 hr
Organ in which mesenchymal stem cells localize (summary, words) [2, 6]: predominantly localize in the heart
Location of human cells by in situ hybridization [3]: human cells predominantly in the heart, but not the liver
% infused cells in liver region ([4]; 0.5×10^6 HSC preceded by 11 mg orosomucoid i.v., 1 hr): 40±3%
% infused cells in liver and spleen ([4]; 0.5×10^6 HSC preceded by 11 mg orosomucoid i.v., immediately after infusion): 43±2%
111In-labeled HSC in the region of the heart (imaging, words) ([4]; 5.75×10^6 HSC preceded by 5.5 mg orosomucoid i.v.): No ^111In-labeled cells were found in the region of the heart
Organ in which hematopoietic stem cells localize (summary, words) [4, 6]: localize in the liver
Tissue location of hCD34+ cells (CD34 staining, in situ hybridization for human DNA) ([5]; 0.5×10^6 HSC preceded by 11 mg orosomucoid i.v., about 1 hour after infusion): Clusters of cells with stem cell morphology could be seen in the hepatic sinusoid; also recorded: not found in the heart muscle or interventricular septum but were present in the lung
Migration of stem cells into tissue (summary, words) ([5]; hematopoietic stem cells after protein infusion): clusters of stem cells are found in the liver parenchyma

From US7563459B2, “Methods and compositions for regenerating tissue” (The United States of America as represented by the …, priority 2002, dated 2009)
